Results as given in article PMC6271078 (Molecules, 2014).
Structures can show the parent of a compound that is named as a salt. Each block holds one compound with its values, some of them ahead of it.

Key:
Aqueous solubility = type: physicochemical; conditions: for Times Increased of Aqueous Solubility (Comp. vs. Rapa): ratio of compound solubility to Rapa solubility; for solubility / Aqueous Solubility: water

Structure (SMILES): CO[C@H]1C[C@@H]2CC[C@@H](C)[C@@](O)(O2)C(=O)C(=O)N2CCCC[C@H]2C(=O)O[C@H]([C@H](C)C[C@@H]2CC[C@@H](OC(=O)C[n+]3cscc3C)[C@H](OC)C2)CC(=O)[C@H](C)/C=C(\C)[C@@H](O)[C@@H](OC)C(=O)[C@H](C)C[C@H](C)/C=C/C=C/C=C/1C (as salt: ammonium) [Compound 2, Rapa-42-ester of 2-(4-methylthiazolium-3-yl)acetic Acid]
melting point: 130 to 133 °C

Structure (SMILES): CO[C@H]1C[C@@H]2CC[C@@H](C)[C@@](O)(O2)C(=O)C(=O)N2CCCC[C@H]2C(=O)O[C@H]([C@H](C)C[C@@H]2CC[C@@H](OC(=O)C[n+]3cccc(C)c3)[C@H](OC)C2)CC(=O)[C@H](C)/C=C(\C)[C@@H](O)[C@@H](OC)C(=O)[C@H](C)C[C@H](C)/C=C/C=C/C=C/1C (as salt: ammonium) [Compound 4, Rapa-42-ester of 2-(3-methylpyridinium-1-yl)acetic Acid]
melting point: 138 to 140 °C

Structure (SMILES): CO[C@H]1C[C@@H]2CC[C@@H](C)[C@@](O)(O2)C(=O)C(=O)N2CCCC[C@H]2C(=O)O[C@H]([C@H](C)C[C@@H]2CC[C@@H](OC(=O)C[n+]3cccc(O)c3)[C@H](OC)C2)CC(=O)[C@H](C)/C=C(\C)[C@@H](O)[C@@H](OC)C(=O)[C@H](C)C[C@H](C)/C=C/C=C/C=C/1C (as salt: ammonium) [Compound 5, Rapa-42-ester of 2-(3-hydroxypyridinium-1-yl)acetic Acid]
melting point: 146 to 148 °C

Structure (SMILES): CO[C@H]1C[C@@H]2CC[C@@H](C)[C@@](O)(O2)C(=O)C(=O)N2CCCC[C@H]2C(=O)O[C@H]([C@H](C)C[C@@H]2CC[C@@H](OC(=O)C[n+]3ccc(C)cc3)[C@H](OC)C2)CC(=O)[C@H](C)/C=C(\C)[C@@H](O)[C@@H](OC)C(=O)[C@H](C)C[C@H](C)/C=C/C=C/C=C/1C (as salt: ammonium) [Compound 6, Rapa-42-ester of 2-(4-methylpyridinium-1-yl)acetic Acid]
melting point: 157 to 160 °C

Structure (SMILES): CO[C@H]1C[C@@H]2CC[C@@H](C)[C@@](O)(O2)C(=O)C(=O)N2CCCC[C@H]2C(=O)O[C@H]([C@H](C)C[C@@H]2CC[C@@H](O)[C@H](OC)C2)CC(=O)[C@H](C)/C=C(\C)[C@@H](OC(=O)C[n+]2cscc2C)[C@@H](OC)C(=O)[C@H](C)C[C@H](C)/C=C/C=C/C=C/1C (as salt: ammonium) [Compound 8, Rapa-31-ester of 2-(4-methylthiazolium-3-yl)acetic Acid]
melting point: 130 to 132 °C

Structure (SMILES): CO[C@H]1C[C@@H]2CC[C@@H](C)[C@@](O)(O2)C(=O)C(=O)N2CCCC[C@H]2C(=O)O[C@H]([C@H](C)C[C@@H]2CC[C@@H](O)[C@H](OC)C2)CC(=O)[C@H](C)/C=C(\C)[C@@H](OC(=O)C[n+]2cccc(C)c2)[C@@H](OC)C(=O)[C@H](C)C[C@H](C)/C=C/C=C/C=C/1C (as salt: ammonium) [Compound 9, Rapa-31-ester of 2-(3-methylpyridinium-1-yl)acetic Acid]
melting point: 138 to 140 °C

Structure (SMILES): CO[C@H]1C[C@@H]2CC[C@@H](C)[C@@](O)(O2)C(=O)C(=O)N2CCCC[C@H]2C(=O)O[C@H]([C@H](C)C[C@@H]2CC[C@@H](O)[C@H](OC)C2)CC(=O)[C@H](C)/C=C(\C)[C@@H](OC(=O)C[n+]2ccc(C)cc2)[C@@H](OC)C(=O)[C@H](C)C[C@H](C)/C=C/C=C/C=C/1C (as salt: ammonium) [Compound 11, Rapa-31-ester of 2-(4-methylpyridinium-1-yl)acetic Acid]
melting point: 145 to 148 °C

Structure (SMILES): CO[C@H]1C[C@@H]2CC[C@@H](C)[C@@](O)(O2)C(=O)C(=O)N2CCCC[C@H]2C(=O)O[C@H]([C@H](C)C[C@@H]2CC[C@@H](OC(=O)C[n+]3csc(C)c3C)[C@H](OC)C2)CC(=O)[C@H](C)/C=C(\C)[C@@H](O)[C@@H](OC)C(=O)[C@H](C)C[C@H](C)/C=C/C=C/C=C/1C [Compound 1, Rapa-42-ester of 2-(4,5-dimethylthiazolium-3-yl)acetic Acid]
Times Increased of Aqueous Solubility (Comp. vs. Rapa) (Aqueous solubility): 1615 | solubility (Aqueous solubility): 4200 µg/mL

Structure (SMILES): CO[C@H]1C[C@@H]2CC[C@@H](C)[C@@](O)(O2)C(=O)C(=O)N2CCCC[C@H]2C(=O)O[C@H]([C@H](C)C[C@@H]2CC[C@@H](OC(=O)C[n+]3cscc3C)[C@H](OC)C2)CC(=O)[C@H](C)/C=C(\C)[C@@H](O)[C@@H](OC)C(=O)[C@H](C)C[C@H](C)/C=C/C=C/C=C/1C [Compound 2, Rapa-42-ester of 2-(4-methylthiazolium-3-yl)acetic Acid]
Times Increased of Aqueous Solubility (Comp. vs. Rapa) (Aqueous solubility): 11 | solubility (Aqueous solubility): 28 µg/mL

Structure (SMILES): CO[C@H]1C[C@@H]2CC[C@@H](C)[C@@](O)(O2)C(=O)C(=O)N2CCCC[C@H]2C(=O)O[C@H]([C@H](C)C[C@@H]2CC[C@@H](O)[C@H](OC)C2)CC(=O)[C@H](C)/C=C(\C)[C@@H](OC(=O)C[n+]2csc(C)c2C)[C@@H](OC)C(=O)[C@H](C)C[C@H](C)/C=C/C=C/C=C/1C [Compound 7, Rapa-31-ester of 2-(4,5-dimethylthiazolium-3-yl)acetic Acid]
Times Increased of Aqueous Solubility (Comp. vs. Rapa) (Aqueous solubility): 8962 | solubility (Aqueous solubility): 23300 µg/mL

Structure (SMILES): CO[C@H]1C[C@@H]2CC[C@@H](C)[C@@](O)(O2)C(=O)C(=O)N2CCCC[C@H]2C(=O)O[C@H]([C@H](C)C[C@@H]2CC[C@@H](O)[C@H](OC)C2)CC(=O)[C@H](C)/C=C(\C)[C@@H](OC(=O)C[n+]2cscc2C)[C@@H](OC)C(=O)[C@H](C)C[C@H](C)/C=C/C=C/C=C/1C [Compound 8, Rapa-31-ester of 2-(4-methylthiazolium-3-yl)acetic Acid]
Times Increased of Aqueous Solubility (Comp. vs. Rapa) (Aqueous solubility): 3846 | solubility (Aqueous solubility): 10000 µg/mL

Structure (SMILES): CO[C@H]1C[C@@H]2CC[C@@H](C)[C@@](O)(O2)C(=O)C(=O)N2CCCC[C@H]2C(=O)O[C@H]([C@H](C)C[C@@H]2CC[C@@H](O)[C@H](OC)C2)CC(=O)[C@H](C)/C=C(\C)[C@@H](OC(=O)C[n+]2cccc(C)c2)[C@@H](OC)C(=O)[C@H](C)C[C@H](C)/C=C/C=C/C=C/1C [Compound 9, Rapa-31-ester of 2-(3-methylpyridinium-1-yl)acetic Acid]
Times Increased of Aqueous Solubility (Comp. vs. Rapa) (Aqueous solubility): 10269 | solubility (Aqueous solubility): 26700 µg/mL

Structure (SMILES): CO[C@H]1C[C@@H]2CC[C@@H](C)[C@@](O)(O2)C(=O)C(=O)N2CCCC[C@H]2C(=O)O[C@H]([C@H](C)C[C@@H]2CC[C@@H](O)[C@H](OC)C2)CC(=O)[C@H](C)/C=C(\C)[C@@H](OC(=O)C[n+]2ccc(C)cc2)[C@@H](OC)C(=O)[C@H](C)C[C@H](C)/C=C/C=C/C=C/1C [Compound 11, Rapa-31-ester of 2-(4-methylpyridinium-1-yl)acetic Acid]
Aqueous Solubility (Aqueous solubility): 62500 µg/mL | solubility (Aqueous solubility): 62000 µg/mL

Other lines, results leading:

melting point: 135 to 137 °C
Structure (SMILES): CO[C@H]1C[C@@H]2CC[C@@H](C)[C@@](O)(O2)C(=O)C(=O)N2CCCC[C@H]2C(=O)O[C@H]([C@H](C)C[C@@H]2CC[C@@H](OC(=O)C[n+]3ccccc3)[C@H](OC)C2)CC(=O)[C@H](C)/C=C(\C)[C@@H](O)[C@@H](OC)C(=O)[C@H](C)C[C@H](C)/C=C/C=C/C=C/1C (as salt: ammonium) [Compound 3, Rapa-42-ester of 2-(pyridinium-1-yl)acetic Acid]

melting point: 140 to 142 °C
Structure (SMILES): CO[C@H]1C[C@@H]2CC[C@@H](C)[C@@](O)(O2)C(=O)C(=O)N2CCCC[C@H]2C(=O)O[C@H]([C@H](C)C[C@@H]2CC[C@@H](O)[C@H](OC)C2)CC(=O)[C@H](C)/C=C(\C)[C@@H](OC(=O)C[n+]2ccccc2)[C@@H](OC)C(=O)[C@H](C)C[C@H](C)/C=C/C=C/C=C/1C (as salt: ammonium) [Compound 10, Rapa-31-ester of 2-(pyridinium-1-yl)acetic Acid]

Times Increased of Aqueous Solubility (Comp. vs. Rapa) (Aqueous solubility): 10 | solubility (Aqueous solubility): 25 µg/mL
Structure (SMILES): CO[C@H]1C[C@@H]2CC[C@@H](C)[C@@](O)(O2)C(=O)C(=O)N2CCCC[C@H]2C(=O)O[C@H]([C@H](C)C[C@@H]2CC[C@@H](OC(=O)C[n+]3ccccc3)[C@H](OC)C2)CC(=O)[C@H](C)/C=C(\C)[C@@H](O)[C@@H](OC)C(=O)[C@H](C)C[C@H](C)/C=C/C=C/C=C/1C [Compound 3, Rapa-42-ester of 2-(pyridinium-1-yl)acetic Acid]

Times Increased of Aqueous Solubility (Comp. vs. Rapa) (Aqueous solubility): 2577 | solubility (Aqueous solubility): 6700 µg/mL
Structure (SMILES): CO[C@H]1C[C@@H]2CC[C@@H](C)[C@@](O)(O2)C(=O)C(=O)N2CCCC[C@H]2C(=O)O[C@H]([C@H](C)C[C@@H]2CC[C@@H](OC(=O)C[n+]3cccc(C)c3)[C@H](OC)C2)CC(=O)[C@H](C)/C=C(\C)[C@@H](O)[C@@H](OC)C(=O)[C@H](C)C[C@H](C)/C=C/C=C/C=C/1C [Compound 4, Rapa-42-ester of 2-(3-methylpyridinium-1-yl)acetic Acid]

Times Increased of Aqueous Solubility (Comp. vs. Rapa) (Aqueous solubility): 4 | solubility (Aqueous solubility): 10 µg/mL
Structure (SMILES): CO[C@H]1C[C@@H]2CC[C@@H](C)[C@@](O)(O2)C(=O)C(=O)N2CCCC[C@H]2C(=O)O[C@H]([C@H](C)C[C@@H]2CC[C@@H](OC(=O)C[n+]3cccc(O)c3)[C@H](OC)C2)CC(=O)[C@H](C)/C=C(\C)[C@@H](O)[C@@H](OC)C(=O)[C@H](C)C[C@H](C)/C=C/C=C/C=C/1C [Compound 5, Rapa-42-ester of 2-(3-hydroxypyridinium-1-yl)acetic Acid]

Times Increased of Aqueous Solubility (Comp. vs. Rapa) (Aqueous solubility): 2308 | solubility (Aqueous solubility): 6000 µg/mL
Structure (SMILES): CO[C@H]1C[C@@H]2CC[C@@H](C)[C@@](O)(O2)C(=O)C(=O)N2CCCC[C@H]2C(=O)O[C@H]([C@H](C)C[C@@H]2CC[C@@H](OC(=O)C[n+]3ccc(C)cc3)[C@H](OC)C2)CC(=O)[C@H](C)/C=C(\C)[C@@H](O)[C@@H](OC)C(=O)[C@H](C)C[C@H](C)/C=C/C=C/C=C/1C [Compound 6, Rapa-42-ester of 2-(4-methylpyridinium-1-yl)acetic Acid]

Aqueous Solubility (Aqueous solubility): 52600 µg/mL | solubility (Aqueous solubility): 62000 µg/mL
Structure (SMILES): CO[C@H]1C[C@@H]2CC[C@@H](C)[C@@](O)(O2)C(=O)C(=O)N2CCCC[C@H]2C(=O)O[C@H]([C@H](C)C[C@@H]2CC[C@@H](O)[C@H](OC)C2)CC(=O)[C@H](C)/C=C(\C)[C@@H](OC(=O)C[n+]2ccccc2)[C@@H](OC)C(=O)[C@H](C)C[C@H](C)/C=C/C=C/C=C/1C [Compound 10, Rapa-31-ester of 2-(pyridinium-1-yl)acetic Acid]
